From PubChem BioAssay AID248 (DTP/NCI, 2004)
Toxic doses and inconclusive results are not listed. Cut-off read from the data, not from the text of the source: active = T/C of 150% or more; inactive = T/C below 125%.

Test system: L1210 leukemia ip in BDF1 mice, survival T/C
Assay: NCI In Vivo Anticancer Drug Screen. Data for tumor model L1210 Leukemia (intraperitoneal) in B6D2F1 (BDF1) mice
Details: endpoint: mean survival time, higher = longer survival
How it was run: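 Transplanted-tumor mice were given test agent; controls received vehicle only. Survival readings from the two groups were divided (treated over control).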

[1] = dose: 100.0 mg/kg/injection, schedule: Q01DX009 (ip), vehicle: Klucel (hydroxypropylcellulose) (HPC)
[2] = dose: 200.0 mg/kg/injection, schedule: Q01DX009 (ip), vehicle: Klucel (hydroxypropylcellulose) (HPC)
[3] = dose: 400.0 mg/kg/injection, schedule: Q01DX009 (ip), vehicle: Klucel (hydroxypropylcellulose) (HPC)
[4] = dose: 100.0 mg/kg/injection, schedule: Q01DX009 (ip), vehicle: saline
[5] = dose: 200.0 mg/kg/injection, schedule: Q01DX009 (ip), vehicle: saline
[6] = dose: 400.0 mg/kg/injection, schedule: Q01DX009 (ip), vehicle: saline
[7] = dose: 100.0 mg/kg/injection, schedule: Q01DX001 (ip), vehicle: saline
[8] = dose: 100.0 mg/kg/injection, schedule: Q04DX003 (ip), vehicle: saline
[9] = dose: 200.0 mg/kg/injection, schedule: Q04DX003 (ip), vehicle: saline
[10] = dose: 400.0 mg/kg/injection, schedule: Q04DX003 (ip), vehicle: saline
[11] = dose: 50.0 mg/kg/injection, schedule: Q01DX009 (ip), vehicle: saline with Tween-80
[12] = dose: 100.0 mg/kg/injection, schedule: Q01DX009 (ip), vehicle: saline with Tween-80
[13] = dose: 100.0 mg/kg/injection, schedule: Q04DX003 (ip), vehicle: saline with Tween-80
[14] = dose: 200.0 mg/kg/injection, schedule: Q01DX009 (ip), vehicle: saline with Tween-80
[15] = dose: 200.0 mg/kg/injection, schedule: Q04DX003 (ip), vehicle: saline with Tween-80
[16] = dose: 50.0 mg/kg/injection, schedule: Q01DX001 (ip), vehicle: saline
[17] = dose: 200.0 mg/kg/injection, schedule: Q01DX001 (ip), vehicle: saline
[18] = dose: 400.0 mg/kg/injection, schedule: Q01DX001 (ip), vehicle: saline
[19] = dose: 400.0 mg/kg/injection, schedule: Q01DX009 (ip), vehicle: saline with Tween-80
[20] = dose: 100.0 mg/kg/injection, schedule: Q04DX003 (ip), vehicle: Klucel (hydroxypropylcellulose) (HPC)
[21] = dose: 200.0 mg/kg/injection, schedule: Q04DX003 (ip), vehicle: Klucel (hydroxypropylcellulose) (HPC)
[22] = dose: 400.0 mg/kg/injection, schedule: Q04DX003 (ip), vehicle: Klucel (hydroxypropylcellulose) (HPC)
[23] = dose: 400.0 mg/kg/injection, schedule: Q04DX003 (ip), vehicle: saline with Tween-80

Measured: T/C

C/C(=N\NC(N)=O)C1CCC(c2ccccc2)CC1 (stereo not given)
inactive: dose: 100.0 mg/kg/injection, schedule: Q01DX001 (ip), vehicle: Klucel (hydroxypropylcellulose) (HPC) 103 % of control | [1] 90 % of control | dose: 200.0 mg/kg/injection, schedule: Q01DX001 (ip), vehicle: Klucel (hydroxypropylcellulose) (HPC) 96 % of control | [2] 86 % of control | dose: 400.0 mg/kg/injection, schedule: Q01DX001 (ip), vehicle: Klucel (hydroxypropylcellulose) (HPC) 92 % of control | [3] 91 % of control

CCOC(=O)/C=C(\C)OCC
inactive: dose: 25.0 mg/kg/injection, schedule: Q01DX009 (ip), vehicle: saline 106 % of control | dose: 50.0 mg/kg/injection, schedule: Q01DX009 (ip), vehicle: saline 109 % of control | [4] 109 % of control | [5] 111 % of control | [6] 104 % of control

CNC(=O)c1cc(C(=O)NC)c[n+](Cc2c(Cl)cccc2Cl)c1
inactive: dose: 18.75 mg/kg/injection, schedule: Q01DX009 (ip), vehicle: saline 92 % of control | dose: 37.5 mg/kg/injection, schedule: Q01DX009 (ip), vehicle: saline 103 % of control | dose: 37.5 mg/kg/injection, schedule: Q04DX003 (ip), vehicle: saline 100 % of control | dose: 75.0 mg/kg/injection, schedule: Q01DX001 (ip), vehicle: saline 96 % of control | dose: 75.0 mg/kg/injection, schedule: Q01DX009 (ip), vehicle: saline 100 % of control | dose: 75.0 mg/kg/injection, schedule: Q04DX003 (ip), vehicle: saline 105 % of control | dose: 150.0 mg/kg/injection, schedule: Q01DX001 (ip), vehicle: saline 98 % of control | dose: 150.0 mg/kg/injection, schedule: Q04DX003 (ip), vehicle: saline 97 % of control

CS(=O)(=O)OCCCS(=O)(=O)O
inactive: [7] 102 % of control

C[PH+](c1ccccc1)c1ccccc1.C[PH+](c1ccccc1)c1ccccc1.O=C([S-])[S-].[Pd+2]
inactive: dose: 50.0 mg/kg/injection, schedule: Q04DX003 (ip), vehicle: saline 100 % of control | [8] 100 % of control | [9] 94 % of control

O=C(O)CNCc1cccc(Br)c1
inactive: [4] 103 % of control | [8] 95 % of control | [5] 92 % of control | [9] 113 % of control | [6] 98 % of control | [10] 98 % of control

COc1cc(/C=N\NC(=O)OC(C)(C)C)cc(OC)c1OC
inactive: [11] 95 % of control | [12] 97 % of control | [13] 87 % of control | [14] 97 % of control | [15] 91 % of control

O=C(Cc1ccc2ccccc2c1)c1c[nH]c2ccccc12
inactive: [16] 102 % of control | [7] 102 % of control | [17] 98 % of control | [18] 93 % of control

O=C(O)CCCl
inactive: [16] 90 % of control | dose: 50.0 mg/kg/injection, schedule: Q01DX009 (ip), vehicle: Klucel (hydroxypropylcellulose) (HPC) 98 % of control | [1] 92 % of control | [8] 104 % of control | [17] 89 % of control | [2] 92 % of control | [9] 98 % of control

CN1CCC(CO)CC1
inactive: [7] 94 % of control | [17] 100 % of control

NC(=O)N/N=C/c1ccccc1N
inactive: [12] 94 % of control | [14] 94 % of control | [19] 96 % of control

C=C1C(=O)O[C@@H]2C[C@@]3(C)CCC[C@H](C)C3=C[C@H]12
inactive: [7] 112 % of control | [17] 98 % of control | [18] 102 % of control

Cc1ccc(CN(CC(=O)O)N=O)cc1
inactive: dose: 100.0 mg/kg/injection, schedule: Q01DX Z (ip), vehicle: saline 107 % of control | dose: 200.0 mg/kg/injection, schedule: Q01DX Z (ip), vehicle: saline 100 % of control

Cc1ccn(C(N)=O)n1
inactive: [1] 107 % of control | [20] 98 % of control | [2] 102 % of control | [21] 96 % of control | [3] 115 % of control | [22] 100 % of control

OCc1cc2ccccc2[nH]1
inactive: [12] 100 % of control | [13] 100 % of control | [14] 100 % of control | [15] 96 % of control | [19] 101 % of control | [23] 100 % of control

O=C1CC(CC(=O)C2CCCC2=O)CC(=O)N1 (stereo not given)
inactive: [7] 101 % of control | [17] 100 % of control | [18] 108 % of control

Cc1cc(N)c(S)cc1C
inactive: dose: 12.5 mg/kg/injection, schedule: Q04DX002 (ip), vehicle: saline with Tween-80 108 % of control | dose: 25.0 mg/kg/injection, schedule: Q04DX002 (ip), vehicle: saline with Tween-80 90 % of control | [16] 94 % of control | dose: 50.0 mg/kg/injection, schedule: Q04DX002 (ip), vehicle: saline with Tween-80 101 % of control | [7] 91 % of control

NN1CC(=O)NC1=O
inactive: [8] 100 % of control | [9] 102 % of control | [10] 100 % of control

CC1CC(=O)Oc2ccc(C(C)(C)C)cc21 (stereo not given)
inactive: dose: 100.0 mg/kg/injection, schedule: Q01DX001 (ip), vehicle: saline with Tween-80 95 % of control | dose: 200.0 mg/kg/injection, schedule: Q01DX001 (ip), vehicle: saline with Tween-80 91 % of control | dose: 400.0 mg/kg/injection, schedule: Q01DX001 (ip), vehicle: saline with Tween-80 95 % of control

C=CCCCCCCCCC(=O)NCCCN1CCOCC1
inactive: [11] 103 % of control | [12] 103 % of control

CCC(CC)C(O)C(C)C(C)O (stereo not given)
inactive: [13] 97 % of control | [15] 113 % of control | [23] 97 % of control

COc1ccc(Cl)cc1NS(=O)(=O)c1c(C)cc(C)cc1C
inactive: [4] 104 % of control | [5] 96 % of control | [6] 111 % of control

O=S(=O)(OCCOS(=O)(=O)c1ccccc1)c1ccccc1
inactive: dose: 100.0 mg/kg/injection, schedule: Q04DX002 (ip), vehicle: Klucel (hydroxypropylcellulose) (HPC) 115 % of control | dose: 200.0 mg/kg/injection, schedule: Q04DX002 (ip), vehicle: Klucel (hydroxypropylcellulose) (HPC) 107 % of control | dose: 400.0 mg/kg/injection, schedule: Q04DX002 (ip), vehicle: Klucel (hydroxypropylcellulose) (HPC) 100 % of control

CON(C)S(=O)(=O)c1ccc(Cl)cc1
inactive: [20] 100 % of control | [21] 103 % of control | [22] 105 % of control
